Test systems include BT-549 breast; SW-620 colon; CCRF-CEM leukemia; 786-0 renal; NCI-H226 lung; MCF7 breast; LOX IMVI melanoma; SK-OV-3 ovarian; HOP-92 NSCLC; HCT-116 colon; COLO 205 colon.
Assay in all cases: NCI tumour cell line growth inhibition, 48 h

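96-well plates; 48 h exposure; 5 concentrations. Endpoints by linear interpolation between flanking doses. Not reached: highest tested concentration assigned. At the TGI there is no net growth.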

Consider `CC(C)Cc1cc2c(cc1O)CCC1C2CC[C@@]2(C)C1CC[C@@H]2O` (some centres undefined), for which the TGI with BT-549 breast worked out at 14.2 µM; with SW-620 colon, 25.4 µM; in the experiment on CCRF-CEM leukemia, 27.1 µM; with 786-0 renal, 23.6 µM; in the experiment on NCI-H226 lung it was 14.2 µM; in the experiment with MCF7 breast, 25.9 µM. The TGI in the experiment on LOX IMVI melanoma was 18.2 µM; with SK-OV-3 ovarian, 24.3 µM; with HOP-92 NSCLC, 26.6 µM; with HCT-116 colon, 16.2 µM; in the experiment with COLO 205 colon, 28.9 µM.
In the case of `CCOC(=O)C(C(=S)SC)c1nn2c(=O)cc(C)nc2s1` (centres undefined), the TGI with BT-549 breast is 34.2 µM; in the experiment on SW-620 colon, 37.2 µM; with CCRF-CEM leukemia, 77.5 µM; in the experiment on 786-0 renal, 36.1 µM; with NCI-H226 lung, 34.6 µM; in the experiment on MCF7 breast it was 33.1 µM. Besides, the TGI was 29.4 µM in the experiment on LOX IMVI melanoma; 47.4 µM with SK-OV-3 ovarian; 43.9 µM with HOP-92 NSCLC; 34.3 µM in the experiment on HCT-116 colon; 47.5 µM in the experiment with COLO 205 colon.
With `Cc1ccc2nc(C=Nc3ccc(Cl)cc3)cc(C)c2c1`, the TGI in the experiment on BT-549 breast is 30 µM; with SW-620 colon it was 27.2 µM; in the experiment with CCRF-CEM leukemia, 13.1 µM; in the experiment on 786-0 renal, 35.3 µM; with NCI-H226 lung, 72.7 µM; with MCF7 breast, 83.7 µM. In addition, the TGI in the experiment with LOX IMVI melanoma is 20.1 µM; in the experiment with SK-OV-3 ovarian, above 100 µM; with HOP-92 NSCLC it was 81 µM; in the experiment with HCT-116 colon, 14.3 µM; with COLO 205 colon, 6.08 µM.
In the case of `C[N+](C)(C)CC(=O)N/N=C/c1ccncc1`, the TGI in the experiment with BT-549 breast, with SW-620 colon, in the experiment on CCRF-CEM leukemia, in the experiment on 786-0 renal, in the experiment with NCI-H226 lung and in the experiment on MCF7 breast was above 100 µM throughout. The TGI in the experiment on LOX IMVI melanoma, in the experiment on SK-OV-3 ovarian, in the experiment with HOP-92 NSCLC, in the experiment with HCT-116 colon and in the experiment on COLO 205 colon was above 100 µM in each case.
Take `O=C(CCCl)NNC1=NCCCN1`: the TGI in the experiment on BT-549 breast, with SW-620 colon, in the experiment on CCRF-CEM leukemia, in the experiment with 786-0 renal, with NCI-H226 lung and in the experiment with MCF7 breast was above 100 µM each time. Further, the TGI in the experiment on LOX IMVI melanoma, in the experiment on SK-OV-3 ovarian, in the experiment with HOP-92 NSCLC, with HCT-116 colon and in the experiment on COLO 205 colon was above 100 µM in each case.
Take `Cc1cc(S(=O)(=O)/N=C(/[N-]S(=O)(=O)c2ccc(Cl)cc2)[n+]2ccc(N(C)C)cc2)c(SCC(=O)O)cc1Cl`: the TGI in the experiment with BT-549 breast, in the experiment on SW-620 colon, in the experiment with CCRF-CEM leukemia, with 786-0 renal, in the experiment with NCI-H226 lung and in the experiment with MCF7 breast was above 100 µM each time. For the same compound, the TGI in the experiment with LOX IMVI melanoma was above 100 µM; in the experiment with SK-OV-3 ovarian, above 100 µM; in the experiment with HOP-92 NSCLC, 54.3 µM; with HCT-116 colon it was above 100 µM; in the experiment on COLO 205 colon, above 100 µM.
As to `COc1ccc2nc3ccc(OC)cc3c(SCc3ccccc3)c2c1`, the TGI in the experiment on BT-549 breast is above 100 µM; in the experiment on SW-620 colon it was above 100 µM; in the experiment on CCRF-CEM leukemia, above 94.1 µM; in the experiment with 786-0 renal, above 100 µM; in the experiment with NCI-H226 lung, above 100 µM; with MCF7 breast it was above 100 µM. For the same compound, the TGI with LOX IMVI melanoma, with SK-OV-3 ovarian, with HOP-92 NSCLC, with HCT-116 colon and with COLO 205 colon was above 100 µM each time.
As to `CCOc1cc2oc(C)cc(=O)c2c(OC)c1C=Nc1ccc(Cn2c(C)nc3ccccc32)cc1`, the TGI with BT-549 breast, with SW-620 colon, in the experiment on CCRF-CEM leukemia, in the experiment on 786-0 renal, in the experiment with NCI-H226 lung and in the experiment with MCF7 breast was above 100 µM each time. Besides, the TGI with LOX IMVI melanoma, with SK-OV-3 ovarian, with HOP-92 NSCLC, in the experiment with HCT-116 colon and in the experiment on COLO 205 colon was above 100 µM throughout.
In the case of `CCOP(=O)(OCC)/C(C#N)=C/c1cnc[nH]1`, the TGI with BT-549 breast, with SW-620 colon, with CCRF-CEM leukemia, with 786-0 renal, in the experiment with NCI-H226 lung and in the experiment with MCF7 breast was above 100 µM each time. The TGI in the experiment with LOX IMVI melanoma, with SK-OV-3 ovarian, in the experiment on HOP-92 NSCLC, in the experiment on HCT-116 colon and with COLO 205 colon was above 100 µM in each case.
Consider `COc1cc(-c2[o+]c3cc(O)cc(O)c3cc2O)cc(O)c1O`, for which the TGI is above 100 µM in the experiment with BT-549 breast; above 100 µM in the experiment on SW-620 colon; 75.9 µM with CCRF-CEM leukemia; above 100 µM with 786-0 renal; above 100 µM with NCI-H226 lung; 46.3 µM with MCF7 breast. The TGI with LOX IMVI melanoma, in the experiment with SK-OV-3 ovarian, in the experiment with HOP-92 NSCLC, in the experiment with HCT-116 colon and in the experiment with COLO 205 colon was above 100 µM each time.
`O=C(CSc1nc2ccc(I)cc2c(=O)n1Cc1ccccc1)NNC(=O)c1ccccc1`: the TGI with BT-549 breast was 21.3 µM; with SW-620 colon it was above 100 µM; in the experiment on CCRF-CEM leukemia, above 100 µM; with 786-0 renal it was 21 µM; with NCI-H226 lung, 15.5 µM; in the experiment with MCF7 breast, 23.2 µM. The TGI in the experiment with LOX IMVI melanoma is above 100 µM; in the experiment with SK-OV-3 ovarian, 44.9 µM; in the experiment on HOP-92 NSCLC, 28.2 µM; in the experiment with HCT-116 colon, above 100 µM; with COLO 205 colon, above 100 µM.
As for `Cc1cccc(-c2cc(=O)c3c(C)cc(C)nc3[nH]2)c1`, the TGI in the experiment with BT-549 breast is 30.2 µM; in the experiment with SW-620 colon, above 19.7 µM; with CCRF-CEM leukemia, above 86.5 µM; with 786-0 renal, above 100 µM; in the experiment with NCI-H226 lung, 31.4 µM; with MCF7 breast, above 100 µM. Moreover, the TGI in the experiment with LOX IMVI melanoma was above 100 µM; with SK-OV-3 ovarian, above 100 µM; in the experiment with HOP-92 NSCLC it was above 100 µM; with HCT-116 colon, above 39.1 µM; in the experiment on COLO 205 colon, 8.16 µM.
As to `CCOC1Oc2ccccc2-c2nc(SC)ncc21` (centres undefined), the TGI in the experiment on BT-549 breast, with SW-620 colon, in the experiment with CCRF-CEM leukemia, with 786-0 renal, in the experiment on NCI-H226 lung and in the experiment with MCF7 breast was above 100 µM each time. For the same compound, the TGI in the experiment on LOX IMVI melanoma, in the experiment with SK-OV-3 ovarian, with HOP-92 NSCLC, in the experiment on HCT-116 colon and in the experiment with COLO 205 colon was above 100 µM throughout.
`c1ccc2c(c1)NC1(N3CCCCC3)CCCCC21` (centres undefined): the TGI with BT-549 breast, in the experiment with SW-620 colon, with CCRF-CEM leukemia, in the experiment on 786-0 renal, in the experiment on NCI-H226 lung and in the experiment with MCF7 breast was above 100 µM throughout. For the same compound, the TGI with LOX IMVI melanoma is above 100 µM; in the experiment on SK-OV-3 ovarian it was above 100 µM; in the experiment on HOP-92 NSCLC, 84 µM; in the experiment with HCT-116 colon it was above 100 µM; with COLO 205 colon it was above 100 µM.
